# Measurements published in article PMC12749748, “Chemically-induced degradation of the endoplasmic-reticulum stress sensor IRE1 by a VHL-recruiting chimera” (Nature Communications, 2025).
# Legend:
# [1] = tested on: AMO1 cells; assay: Global proteomics of protein depletion in AMO1 cells; type: cell-based; conditions: 1 µM, 4 h
# Experimental: One milligram of protein lysate in denaturing buffer (8 M Urea, 20 mM HEPES, pH 8.0) was reduced (5 mM dithiothreitol (DTT), 45 min at 37 °C), alkylated (15 mM iodoacetamide (IAA), 20 min at room temperature in the dark), and quenched (5 mM DTT, 15 min at room temperature in the dark). Proteins were pelleted by chloroform-methanol precipitation. The resulting pellet was resuspended in denaturing buffer, diluted to 4 M Urea, and digested for 4 h at 37 °C with lysyl-endopeptidase (Wako) at an enzyme to protein ratio of 1:100. The sample was further diluted to 1.3 M Urea and subjected to overnight enzymatic digestion at 37 °C with sequencing grade trypsin (Promega, enzyme: protein ratio = 1:50). Resultant peptides were acidified with 20% Trifluoroacetic acid (TFA, 1% final concentration), centrifuged at 18,000 × g for 15 min, and desalted using a Sep-Pak C18 column (Waters). […]
# For the global proteome, LC-MS/MS analysis was performed by injecting 1 μL of each fraction on an Orbitrap Eclipse mass spectrometer (Thermo Fisher) coupled to a Dionex Ultimate 3000 RSLC (Thermo Fisher) employing a 25 cm IonOpticks Aurora Series column (IonOpticks, Parkville, Australia) with a gradient of 2% to 30% buffer B (98% ACN, 2% H2O with 0.1% FA, flow rate = 300 nL/min). Global proteome samples were analyzed with a total run time of 95 min. […]
# [2] = tested on: IRE1 L577D, V586D, A597D, L644D, L695D, E651A; assay: NanoBRET with IRE1 point mutants disrupting IRE1:G6374 interactions; type: cell-based; conditions: each of L577D, HEK293T
# Experimental: 8 × 10^5 293T cells per well were seeded in 6-well plates (Costar, #3516) and incubated at 37 °C, 5% CO2 for 6 h. A mixture of 0.2 µg ERN1 (IRE1)-NanoLuc Fusion Vector (Promega, NV1321), 2 µg HaloTag-VHL Fusion Vector (Promega, N2731), 6 µl FuGENE HD Transfection Reagent (Promega, E2311), and 100 µL Opti-MEM I reduced serum medium (Gibco, #31985062) per well was incubated at room temperature for 20 min before adding to cells. For expression of IRE1 mutants, site-directed mutagenesis was performed using the ERN1-NanoLuc Fusion Vector as the DNA template, and the transfection mixture was prepared in the same way as WT IRE1. After 18 h, cells from 6-well plates were trypsinized, resuspended in Opti-MEM I reduced serum medium, and reseeded into 96-well plates (Costar, #3917), with or without the addition of HaloTag NanoBRET 618 Ligand (Promega, G9801). After 18 h of incubation, a titration of G6374 (dilutions made in Opti-MEM I reduced serum medium) was added to the cells. After 2 h of G6374 treatment, NanoBRET Nano-Glo Substrate (Promega, N1571) was added to cells. The 96-well plates were imaged by GloMax Discover Microplate Reader (Promega, GM3000) with the default “BRET: NanoBRET 618” protocol (Donor: 450 BP; Acceptor: 600 LP; Integration: 0.3 s). Data analysis was performed according to the user manual.
smiles,measurement,setting,value
Cc1ncsc1-c1ccc(CNC(=O)[C@@H]2C[C@@H](O)CN2C(=O)[C@@H](NC(=O)CCCCN2CCN([C@H]3CC[C@H](Nc4ncc5ccc(=O)n(C(C)C)c5n4)CC3)CC2)C(C)(C)C)cc1 [G6374],"protein depletion by global proteomics, G6374 versus G2642",[1],IRE1 as the most substantially and significantly depleted protein target
same,G6374-induced IRE1:VHL interaction and IRE1 degradation with IRE1 point mutants,[2],abolish the G6374-induced interaction between IRE1 and VHL
